Source: PubChem BioAssay AID248 (DTP/NCI, 2004)
Several values for one entry are separate records, joined by “and”; a condition that tells them apart may be missing. Equal entries are not always repeated. Inconclusive results and toxic doses are left out. Cut-off read from the data, not from the text of the source: active = T/C of 150% or more; inactive = T/C below 125%.

Tested on: L1210 leukemia ip in BDF1 mice, survival T/C
Experiment: NCI In Vivo Anticancer Drug Screen. Data for tumor model L1210 Leukemia (intraperitoneal) in B6D2F1 (BDF1) mice
Settings: endpoint: mean survival time, higher = longer survival
Procedure, shortened: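 Value reflects the ratio of survival in compound-treated mice to survival in vehicle-treated controls, with both groups carrying the same transplanted tumor.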

[1] = dose: 25.0 mg/kg/injection, schedule: Q04DX003 (ip), vehicle: saline
[2] = dose: 50.0 mg/kg/injection, schedule: Q01DX009 (ip), vehicle: saline
[3] = dose: 50.0 mg/kg/injection, schedule: Q04DX003 (ip), vehicle: saline
[4] = dose: 100.0 mg/kg/injection, schedule: Q01DX009 (ip), vehicle: saline
[5] = dose: 100.0 mg/kg/injection, schedule: Q04DX003 (ip), vehicle: saline
[6] = dose: 200.0 mg/kg/injection, schedule: Q01DX009 (ip), vehicle: saline
[7] = dose: 75.0 mg/kg/injection, schedule: Q01DX001 (ip), vehicle: saline
[8] = dose: 150.0 mg/kg/injection, schedule: Q01DX001 (ip), vehicle: saline
[9] = dose: 100.0 mg/kg/injection, schedule: Q01DX001 (ip), vehicle: Klucel (hydroxypropylcellulose) (HPC)
[10] = dose: 200.0 mg/kg/injection, schedule: Q01DX001 (ip), vehicle: Klucel (hydroxypropylcellulose) (HPC)
[11] = dose: 400.0 mg/kg/injection, schedule: Q01DX001 (ip), vehicle: Klucel (hydroxypropylcellulose) (HPC)
[12] = dose: 100.0 mg/kg/injection, schedule: Q01DX009 (ip), vehicle: saline with Tween-80
[13] = dose: 200.0 mg/kg/injection, schedule: Q01DX009 (ip), vehicle: saline with Tween-80
[14] = dose: 400.0 mg/kg/injection, schedule: Q01DX009 (ip), vehicle: saline with Tween-80
[15] = dose: 100.0 mg/kg/injection, schedule: Q01DX009 (ip), vehicle: Klucel (hydroxypropylcellulose) (HPC)
[16] = dose: 200.0 mg/kg/injection, schedule: Q01DX009 (ip), vehicle: Klucel (hydroxypropylcellulose) (HPC)
[17] = dose: 50.0 mg/kg/injection, schedule: Q01DX009 (ip), vehicle: saline with Tween-80

Measured: T/C

Cc1ccccc1OCC(O)CO (centres undefined)
inactive: dose: 25.0 mg/kg/injection, schedule: Q01DX009 (ip), vehicle: saline 95 % of control | [1] 101 % of control | [2] 93 % of control | [3] 95 % of control | [4] 102 % of control | [5] 95 % of control | [6] 102 % of control | dose: 200.0 mg/kg/injection, schedule: Q04DX003 (ip), vehicle: saline 111 % of control | dose: 400.0 mg/kg/injection, schedule: Q01DX009 (ip), vehicle: saline 98 % of control | dose: 400.0 mg/kg/injection, schedule: Q04DX003 (ip), vehicle: saline 123 % of control

CCC1(O)C(=O)OCc2c1ccn(C)c2=O (centres undefined)
inactive: dose: 18.7 mg/kg/injection, schedule: Q01DX001 (ip), vehicle: saline 113 % of control | dose: 37.5 mg/kg/injection, schedule: Q01DX001 (ip), vehicle: saline 105 % of control | [7] 102 % of control | [8] 102 % of control

[N-]=[N+]=Nc1ccc(C(=O)O)cc1
inactive: [9] 100 % of control | [10] 100 % of control | [11] 103 % of control

OCC(O)COc1ccc(Cl)cc1 (centres undefined)
inactive: dose: 100.0 mg/kg/injection, schedule: Q01DX001 (ip), vehicle: saline with Tween-80 98 % of control | [12] 100 % of control and 110 % of control | dose: 100.0 mg/kg/injection, schedule: Q04DX003 (ip), vehicle: saline with Tween-80 98 % of control and 100 % of control | dose: 200.0 mg/kg/injection, schedule: Q01DX001 (ip), vehicle: saline with Tween-80 105 % of control | [13] 96 % of control and 100 % of control | dose: 200.0 mg/kg/injection, schedule: Q04DX003 (ip), vehicle: saline with Tween-80 96 % of control and 103 % of control | dose: 400.0 mg/kg/injection, schedule: Q01DX001 (ip), vehicle: saline with Tween-80 88 % of control | [14] 94 % of control | dose: 400.0 mg/kg/injection, schedule: Q04DX003 (ip), vehicle: saline with Tween-80 100 % of control

OCCN1CCN(CCCN2c3ccccc3CCc3ccccc32)CC1
inactive: dose: 12.5 mg/kg/injection, schedule: Q04DX003 (ip), vehicle: saline 98 % of control | dose: 15.62 mg/kg/injection, schedule: Q04DX003 (ip), vehicle: saline 100 % of control | [1] 106 % of control | dose: 31.25 mg/kg/injection, schedule: Q04DX003 (ip), vehicle: saline 103 % of control | [3] 104 % of control | dose: 62.5 mg/kg/injection, schedule: Q04DX003 (ip), vehicle: saline 105 % of control | [5] 104 % of control | dose: 125.0 mg/kg/injection, schedule: Q04DX003 (ip), vehicle: saline 92 % of control

COc1ccc(Cl)cc1NC(=O)Oc1cc(C)c(Cl)c(C)c1
inactive: [15] 104 % of control | [16] 95 % of control | dose: 400.0 mg/kg/injection, schedule: Q01DX009 (ip), vehicle: Klucel (hydroxypropylcellulose) (HPC) 112 % of control

O=C(O)C/C=C/c1ccccc1Br
inactive: [9] 91 % of control | [10] 101 % of control | [11] 95 % of control

COc1ccc(C)cc1NC(=O)Sc1ccc(Cl)cc1
inactive: [17] 117 % of control | [12] 95 % of control

Cn1cnc2cc(Cl)ccc21
inactive: [2] 101 % of control | [4] 104 % of control | [6] 97 % of control

Cc1ccc(N=Nc2ccc(C)cc2NC(=O)Nc2cc([N+](=O)[O-])ccc2F)cc1
inactive: dose: 100.0 mg/kg/injection, schedule: Q04DX002 (ip), vehicle: saline 93 % of control | dose: 200.0 mg/kg/injection, schedule: Q04DX002 (ip), vehicle: saline 108 % of control | dose: 400.0 mg/kg/injection, schedule: Q04DX002 (ip), vehicle: saline 90 % of control

COc1ccc(C)cc1NC(=O)NNS(=O)(=O)c1ccc(C)cc1
inactive: [17] 93 % of control | [12] 93 % of control | [13] 93 % of control

CC(O)C[N+](=O)[O-] (centres undefined)
inactive: [2] 103 % of control | [4] 98 % of control | [6] 106 % of control

CN(C)CC1CCCCC1OC(=O)c1ccccc1 (centres undefined)
inactive: [17] 91 % of control | [12] 94 % of control

Cc1cccc(C)c1NC(=O)Oc1ccc(F)cc1Cl
inactive: [15] 110 % of control | [16] 97 % of control

CCC[N+]1=C(/C=C/c2ccc3cccnc3c2O)C(C)(C)c2ccccc21
inactive: dose: 100.0 mg/kg/injection, schedule: Q01DX001 (ip), vehicle: carboxymethylcellulose (CMC) 95 % of control | dose: 200.0 mg/kg/injection, schedule: Q01DX001 (ip), vehicle: carboxymethylcellulose (CMC) 98 % of control | dose: 400.0 mg/kg/injection, schedule: Q01DX001 (ip), vehicle: carboxymethylcellulose (CMC) 93 % of control

O=C(OC(c1ccccc1)(C(F)(F)F)C(F)(F)F)c1ccccc1Sc1ccccc1
inactive: [12] 95 % of control | [13] 101 % of control | [14] 98 % of control

c1ccc([P+](Cc2cccc3c2Cc2ccccc2-3)(c2ccccc2)c2ccccc2)cc1
inactive: dose: 15.0 mg/kg/injection, schedule: Q01DX001 (ip), vehicle: carboxymethylcellulose (CMC) 104 % of control

O=S(=O)(Cc1ccccc1)SSS(=O)(=O)Cc1ccccc1
inactive: [7] 98 % of control | [8] 106 % of control | dose: 300.0 mg/kg/injection, schedule: Q01DX001 (ip), vehicle: saline 95 % of control

O=C(CCl)Nc1ccc(SSc2ccc(NC(=O)CCl)cc2)cc1
inactive: dose: 50.0 mg/kg/injection, schedule: Q04DX003 (ip), vehicle: Klucel (hydroxypropylcellulose) (HPC) 95 % of control | dose: 100.0 mg/kg/injection, schedule: Q04DX003 (ip), vehicle: Klucel (hydroxypropylcellulose) (HPC) 101 % of control | dose: 200.0 mg/kg/injection, schedule: Q04DX003 (ip), vehicle: Klucel (hydroxypropylcellulose) (HPC) 101 % of control

O=S(=O)(F)c1ccc(C[P+](c2ccccc2)(c2ccccc2)c2ccccc2)cc1Cl
inactive: dose: 12.5 mg/kg/injection, schedule: Q01DX001 (ip), vehicle: carboxymethylcellulose (CMC) 103 % of control | dose: 12.5 mg/kg/injection, schedule: Q01DX009 (ip), vehicle: carboxymethylcellulose (CMC) 113 % of control and 117 % of control | dose: 12.5 mg/kg/injection, schedule: Q04DX002 (ip), vehicle: carboxymethylcellulose (CMC) 97 % of control and 100 % of control | dose: 25.0 mg/kg/injection, schedule: Q01DX001 (ip), vehicle: carboxymethylcellulose (CMC) 99 % of control | dose: 25.0 mg/kg/injection, schedule: Q01DX009 (ip), vehicle: carboxymethylcellulose (CMC) 97 % of control and 98 % of control | dose: 25.0 mg/kg/injection, schedule: Q04DX002 (ip), vehicle: carboxymethylcellulose (CMC) 100 % of control and 103 % of control | dose: 25.0 mg/kg/injection, schedule: Q04DX003 (ip), vehicle: carboxymethylcellulose (CMC) 96 % of control and 102 % of control | dose: 50.0 mg/kg/injection, schedule: Q01DX001 (ip), vehicle: carboxymethylcellulose (CMC) 99 % of control and 101 % of control and 107 % of control | dose: 50.0 mg/kg/injection, schedule: Q01DX009 (ip), vehicle: carboxymethylcellulose (CMC) 98 % of control and 103 % of control | dose: 50.0 mg/kg/injection, schedule: Q04DX002 (ip), vehicle: carboxymethylcellulose (CMC) 100 % of control and 110 % of control | dose: 50.0 mg/kg/injection, schedule: Q04DX003 (ip), vehicle: carboxymethylcellulose (CMC) 102 % of control and 105 % of control | dose: 100.0 mg/kg/injection, schedule: Q04DX002 (ip), vehicle: carboxymethylcellulose (CMC) 101 % of control and 91 % of control | dose: 100.0 mg/kg/injection, schedule: Q04DX003 (ip), vehicle: carboxymethylcellulose (CMC) 102 % of control and 104 % of control
